Test results from ChEMBL document CHEMBL1130920, “The structure-activity relationships of a series of suicide inhibitors of phospholipase A2” (Bioorg Med Chem Lett, 1998).

Test: Compound was tested for the inhibitory activity against cobra venom PLA2 (Naja naja atra) by using the Dole assay

O=[N+]([O-])c1ccc(O)cc1
Activity (nM min-1 mg-1): 2.5

O=S(=O)(c1ccc(O)cc1)C(F)(F)F
Activity (nM min-1 mg-1): 11.9

CS(=O)(=O)c1ccc(O)cc1
Activity (nM min-1 mg-1): 11.1

[O-][S+](c1ccc(O)cc1)C(F)(F)F (centres undefined)
Activity (nM min-1 mg-1): 2
